Consider 12 compounds from US5326751A, “Enkephalin analogs” (Arizona Board of Regents on behalf of the University of …, priority 1992, dated 1994).

Test [1] addresses T1, delta-type opioid receptors (Rattus norvegicus, UniProt P33533).
T1 construct: Whole brains with cerebellum removed were homogenized in 100 volumes of Tris-HCl buffer; from tissue; host or cells: rat brain (without cerebellum), washed homogenate
Briefly: displacement of [3H][p-Cl-Phe4]DPDPE in rat brain homogenate. The class given is binding. As to conditions: for IC50: rat brain homogenate, 1 nM radioligand, 25° C., 40 min, read-out: IC50 (nM) ± S.E.E. [3H] p-Cl-DPDPE. The protocol: (§1) The binding potencies of each compound for mu and delta receptors in rat brain extracts was determined by competition assays against radiolabelled compounds known to bind opioid receptors. […] The ability of a tested compound to displace tritiated ligands from their respective receptor molecules is a measure of the compound's binding potency for the receptor of the displaced ligand.
(§2) Brains from male Sprague-Dawley rats were rapidly removed following sacrifice. Whole brains with cerebellum removed were homogenized in 100 volumes of Tris-HCl buffer (pH 7.4 at 25°). Tissue homogenates were washed twice in the same buffer by centrifugation at 48,000 g for 10 min. Pellets were resuspended in the same buffer.
Total incubation volume was 2 ml. After 40 min., the mixture was rapidly filtered through Whatman GF/B glass fiber filters and washed 3 times with 5 ml of ice-cold buffer.
(§3) Filter-bound radioactivity was quantitated by liquid scintillation spectrophotometry with an efficiency of 46%. Radio-ligand displaced by 1 μM natrexone hydrochloride was defined as specific tissue binding.
(In a radioligand displacement assay an active substance lowers the binding of a labelled ligand.)

Test [2] concerns the target T2, mu-type opioid receptors (Rattus norvegicus, UniProt P33535).
T2 construct: Whole brains with cerebellum removed were homogenized in 100 volumes of Tris-HCl buffer; from tissue; host or cells: rat brain (without cerebellum), washed homogenate
Briefly: displacement of [3H]CTOP in rat brain homogenate. The test is classed as binding. To be noted: 25° C., read-out: IC50 (nM) ± S.E.E. [3H] CTOP. The protocol:
as §1, §2, §3

In test [3] the target is T3, mouse vas deferens (MVD), primarily delta-type opiate receptors (Mus musculus, UniProt P32300).
T3 construct: from tissue; host or cells: mouse vas deferens
Briefly: mouse vas deferens (MVD) assay: inhibition of electrically induced muscle contractions. The test is classed as cell-based. As to conditions: for IC50: mouse vas deferens, electrically stimulated contractions, read-out: IC50 (nM) ± S.E.E. MVD. How it is done: The MVD preparation contains primarily delta-type opiate receptors, with some kappa and mu receptors.
The mouse vas deferens was prepared following the method of Hughes, et al. cites Brit. J. Pharmacol., 53, 371-381 (1975). One pair of vasa deferentia was used in each experiment.

Test [4] addresses guinea pig ileum (GPI), primarily mu-type opiate receptors (Cavia porcellus, UniProt P97266). The test can be described thus: guinea pig ileum (GPI) assay: inhibition of electrically induced muscle contractions. The class given is cell-based. On the set-up: inh in GPI: dose or concentration left out as unconfirmed. To be noted: for IC50: guinea pig ileum, electrically stimulated contractions, read-out: IC50 (nM) ± S.E.E. GPI. The protocol: The guinea pig ileum longitudinal muscle-myenteric plexus preparation was prepared following the method of Kosterlitz, et al. Brit. J. Pharmacol., 39, 398-413 (1970). Agonists were added to the tissue bath and remained in contact with the tissue for a maximum of three minutes.

Bridge positions count the residues as written; N and C are the ends. Square brackets hold non-standard residues; d marks the D form. Peptide text beside a SMILES is read from it. Phe(4-NO2) = N[C@@H](Cc1ccc([N+](=O)[O-])cc1)C(=O)O; Phe(4-Br) = N[C@@H](Cc1ccc(Br)cc1)C(=O)O; Phe(4-Cl) = N[C@@H](Cc1ccc(Cl)cc1)C(=O)O; Phe(4-F) = N[C@@H](Cc1ccc(F)cc1)C(=O)O; Phe(4-I) = N[C@@H](Cc1ccc(I)cc1)C(=O)O; dPen = CC(C)(S)[C@@H](N)C(=O)O; dAbu = CC[C@@H](N)C(=O)O; Ac5c = NC1(C(=O)O)CCCC1; Abu = CC[C@H](N)C(=O)O Some results are limits rather than exact numbers.

T3 sequence (P32300 whole entry): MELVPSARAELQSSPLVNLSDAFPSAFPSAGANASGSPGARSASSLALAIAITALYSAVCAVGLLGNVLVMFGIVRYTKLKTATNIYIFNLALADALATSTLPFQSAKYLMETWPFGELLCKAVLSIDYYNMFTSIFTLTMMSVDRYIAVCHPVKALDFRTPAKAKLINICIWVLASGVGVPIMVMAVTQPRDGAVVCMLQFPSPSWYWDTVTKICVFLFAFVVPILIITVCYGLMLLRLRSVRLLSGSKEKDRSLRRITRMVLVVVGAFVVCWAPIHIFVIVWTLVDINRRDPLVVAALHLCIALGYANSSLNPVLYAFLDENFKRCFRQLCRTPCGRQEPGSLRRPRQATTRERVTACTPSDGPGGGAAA
guinea pig ileum (GPI), primarily mu-type opiate receptors, sequence (P97266 whole entry, looked up): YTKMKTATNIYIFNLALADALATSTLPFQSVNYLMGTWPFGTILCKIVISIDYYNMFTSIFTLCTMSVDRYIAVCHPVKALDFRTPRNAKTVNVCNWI
T2 sequence (P33535 whole entry): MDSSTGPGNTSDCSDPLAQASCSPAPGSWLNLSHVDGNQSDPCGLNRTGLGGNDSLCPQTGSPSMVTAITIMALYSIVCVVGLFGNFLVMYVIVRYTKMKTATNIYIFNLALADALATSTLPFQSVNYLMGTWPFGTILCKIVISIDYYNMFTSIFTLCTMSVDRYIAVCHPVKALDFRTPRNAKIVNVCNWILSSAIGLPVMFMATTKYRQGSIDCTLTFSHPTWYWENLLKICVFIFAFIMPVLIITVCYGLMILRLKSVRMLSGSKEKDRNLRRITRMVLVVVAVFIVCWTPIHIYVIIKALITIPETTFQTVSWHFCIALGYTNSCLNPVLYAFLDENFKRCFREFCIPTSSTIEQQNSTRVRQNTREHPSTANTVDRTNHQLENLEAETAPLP
T1 sequence (P33533 whole entry): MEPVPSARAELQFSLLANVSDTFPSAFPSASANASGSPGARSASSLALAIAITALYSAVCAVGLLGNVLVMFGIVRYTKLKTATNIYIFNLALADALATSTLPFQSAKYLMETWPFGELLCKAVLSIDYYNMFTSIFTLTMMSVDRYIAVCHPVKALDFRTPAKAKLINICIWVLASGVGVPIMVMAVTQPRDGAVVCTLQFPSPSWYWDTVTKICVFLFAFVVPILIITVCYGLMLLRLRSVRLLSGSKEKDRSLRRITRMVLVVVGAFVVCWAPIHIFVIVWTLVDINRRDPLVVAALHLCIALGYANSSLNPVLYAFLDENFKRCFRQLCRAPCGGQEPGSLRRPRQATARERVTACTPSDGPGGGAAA

Consider `CC1(C)SSC(C)(C)[C@@H](NC(=O)[C@@H](N)Cc2ccc(O)cc2)C(=O)NC2(CCCC2)C(=O)N[C@@H](Cc2ccccc2)C(=O)N[C@H]1C(=O)O` [[AC5 C^3]DPDPE] (H-Y[dPen][Ac5c]F[dPen]-OH; disulfide 2-5), for which the IC50 in test [1] is 312 ± 39 nM; in test [2] it was 1760 ± 45 nM; in test [3], 370 ± 162 nM; in test [4] it was 857 ± 31.7 nM.

With `CC1(C)SSC(C)(C)[C@@H](NC(=O)[C@@H](N)Cc2ccc(O)cc2)C(=O)N[C@H](CO)C(=O)N[C@@H](Cc2ccccc2)C(=O)N[C@H]1C(=O)O` [[D--Ser^3]DPDPE] (H-Y[dPen][dS]F[dPen]-OH; disulfide 2-5), the results for the IC50 in test [1], in test [2] and in test [3] were 764 ± 106 nM, over 50000 nM and 1280 ± 245 nM, respectively. For the same compound, in test [4], the “inh in GPI” value turned out to be 3 % inh.

For the compound `CC[C@H]1NC(=O)[C@H](NC(=O)[C@@H](N)Cc2ccc(O)cc2)C(C)(C)SSC(C)(C)[C@H](C(=O)O)NC(=O)[C@H](Cc2ccccc2)NC1=O` [[D--Abu^3]DPDPE] (H-Y[dPen][dAbu]F[dPen]-OH; disulfide 2-5), the IC50 was 3380 ± 1070 nM in test [1], over 50000 nM in test [2], 1950 ± 204 nM in test [3] and 29900 ± 2670 nM in test [4].

As for `C[C@@H]1NC(=O)[C@H](NC(=O)[C@@H](N)Cc2ccc(O)cc2)C(C)(C)SSC(C)(C)[C@H](C(=O)O)NC(=O)[C@H](Cc2ccc(Br)cc2)NC1=O` [[p-Br--Phe^4 ]DPADPE] (H-Y[dPen]A[Phe(4-Br)][dPen]-OH; disulfide 2-5), the 50% inhibitory concentration (IC50) in test [1] was found to be 5.3 ± 0.86 nM; in test [2], 2710 ± 453 nM; in test [3], 2.95 ± 0.686 nM; in test [4] it was 40800 ± 2950 nM.

On to `C[C@H]1NC(=O)[C@H](NC(=O)[C@@H](N)Cc2ccc(O)cc2)C(C)(C)SSC(C)(C)[C@H](C(=O)O)NC(=O)[C@H](Cc2ccccc2)NC1=O` [[D--Ala^3]DPDPE] (H-Y[dPen][dA]F[dPen]-OH; disulfide 2-5), for which the IC50 was 535 ± 58 nM in test [1], over 35000 nM in test [2], 572 ± 131 nM in test [3] and 33300 ± 817 nM in test [4].

Take `C[C@@H]1NC(=O)[C@H](NC(=O)[C@@H](N)Cc2ccc(O)cc2)C(C)(C)SSC(C)(C)[C@H](C(=O)O)NC(=O)[C@H](Cc2ccc(Cl)cc2)NC1=O` [[p-Cl--Phe^4 ]DPADPE] (H-Y[dPen]A[Phe(4-Cl)][dPen]-OH; disulfide 2-5): the IC50 in test [1] worked out at 3.7 ± 0.9 nM; in test [2], 1120 ± 260 nM; in test [3], 1.94 ± 0.295 nM; in test [4], 25500 ± 10300 nM.

`CC1(C)SSC(C)(C)[C@@H](NC(=O)[C@@H](N)Cc2ccc(O)cc2)C(=O)N[C@@H](CO)C(=O)N[C@@H](Cc2ccccc2)C(=O)N[C@H]1C(=O)O` [[L--Ser^3]DPDPE] (H-Y[dPen]SF[dPen]-OH; disulfide 2-5): the IC50 is 42 ± 3 nM in test [1], over 22500 nM in test [2], 252 ± 32.5 nM in test [3] and 39400 ± 7160 nM in test [4].

As for `C[C@@H]1NC(=O)[C@H](NC(=O)[C@@H](N)Cc2ccc(O)cc2)C(C)(C)SSC(C)(C)[C@H](C(=O)O)NC(=O)[C@H](Cc2ccc(F)cc2)NC1=O` [[p-F--Phe^4 ]DPADPE] (H-Y[dPen]A[Phe(4-F)][dPen]-OH; disulfide 2-5), the IC50 came to 0.55 ± 0.14 nM in test [1], 1460 ± 253 nM in test [2], 3.61 ± 0.367 nM in test [3] and 4600 ± 1010 nM in test [4].

As to `C[C@@H]1NC(=O)[C@H](NC(=O)[C@@H](N)Cc2ccc(O)cc2)C(C)(C)SSC(C)(C)[C@H](C(=O)O)NC(=O)[C@H](Cc2ccc([N+](=O)[O-])cc2)NC1=O` [[p-NO2 --Phe^4 ]DPADPE] (H-Y[dPen]A[Phe(4-NO2)][dPen]-OH; disulfide 2-5), the concentration for half-maximal inhibition (IC50) in test [1] stood at 3.5 ± 0.25 nM; in test [2] it was 712 ± 3 nM; in test [3], 3.74 ± 0.356 nM; in test [4] it was 13500 ± 1210 nM.

On to `C[C@@H]1NC(=O)[C@H](NC(=O)[C@@H](N)Cc2ccc(O)cc2)C(C)(C)SSC(C)(C)[C@H](C(=O)O)NC(=O)[C@H](Cc2ccc(I)cc2)NC1=O` [[p-I--Phe^4 ]DPADPE] (H-Y[dPen]A[Phe(4-I)][dPen]-OH; disulfide 2-5), for which the IC50 in test [1] was found to be 12.5 ± 0.5 nM; in test [2], 3670 ± 396 nM; in test [3], 11 ± 1.23 nM; in test [4], 30800 ± 1550 nM.

As for `C[C@@H]1NC(=O)[C@H](NC(=O)[C@@H](N)Cc2ccc(O)cc2)C(C)(C)SSC(C)(C)[C@H](C(=O)O)NC(=O)[C@H](Cc2ccccc2)NC1=O` [[L--Ala^3 ]DPDPE (DPADPE), L-Tyrosyl-D-penicillaminyl-L--alanyl-L-phenylalanyl-D-penicillaminyl cyclic (2-5) disulfide] (H-Y[dPen]AF[dPen]-OH; disulfide 2-5), in test [1] ([3H]CTOP IC50 / [3H]p-Cl-DPDPE IC50, rat brain), the “RATIO (μ/δ), Table 2” value was determined as 598. Moreover, the IC50 in test [1] came to 18.4 ± 0.43 nM; in test [2], 11000 ± 13 nM; in test [3] it was 11.8 ± 1.62 nM; in test [4], 121000 ± 81400 nM. The “RATIO (μ/δ), Table 1” value in test [3] (GPI IC50 / MVD IC50) is listed as 10,315.

On to `CC[C@@H]1NC(=O)[C@H](NC(=O)[C@@H](N)Cc2ccc(O)cc2)C(C)(C)SSC(C)(C)[C@H](C(=O)O)NC(=O)[C@H](Cc2ccccc2)NC1=O` [[L--Abu^3]DPDPE] (H-Y[dPen][Abu]F[dPen]-OH; disulfide 2-5), for which the IC50 is 66.3 ± 30.4 nM in test [1], 12000 ± 938 nM in test [2], 84.9 ± 12.5 nM in test [3] and 4870 ± 345 nM in test [4].

As a reminder, the IC50 is the concentration that inhibits the measured activity by half.
